Columns and labels:
MDA-MB-231 (breast) = assay: MTT in vitro cytotoxic activity assay, MDA-MB-231; type: cell-based; conditions: Homo sapiens; MDA-MB-231 (breast) cells, exposed for 96 hours; read-out: IC50, 50% inhibition of cell proliferation
Experimental: (§1) Compounds 1-12 were screened for their in vitro cytotoxic activity utilizing a 3-(4,5-dimethyl-thiazol-2-yl)-2,5-diphenyltetrazolium bromide (MTT) assay against selected cancer human cell lines consisting of PC3 (prostate), HCT116 (colon), A375 (melanoma), H1299 (lung), MIAPaCa-2 (pancreas), HL60 (leukemia), MCF7 (breast), MDA-MB-231 (breast) (T. Mosmann, J. Immunol. Meth., 1983, 65, 55-63). The cells were cultured at 37° C. in RMPI1640 medium supplemented with 10% fetal bovine serum, 50 IU/mL penicillin, and 50 μg/mL streptomycin in a 5% CO2 incubator. All cells were sub-cultured 3 times/week by trypsinisation. Viable cells were seeded and allowed to adhere for 12 h before a test drug was added in 96-well plates at an initial density of 1.0×10^5 cells/mL. Tumour cell lines were separately exposed to various concentrations of the tested compounds followed by incubation at a temperature of 37° C. during 96 h inside a medium of fresh RMPI 1640. Cells were subsequently incubated at 37° C. using MTT at 0.5 mg/mL during 4 h. After removal of supernatant, formazan crystals were dissolved in isopropanol and the optical density was measured at 570 nm. CX-4945 was used as a positive control.

HCT116 (colon) = assay: MTT in vitro cytotoxic activity assay, HCT116; type: cell-based; conditions: Homo sapiens, HCT-116; HCT116 (colon) cells, exposed for 96 hours; read-out: IC50, 50% inhibition of cell proliferation
Experimental: as §1

A375 (melanoma) = assay: MTT in vitro cytotoxic activity assay, A375; type: cell-based; conditions: Homo sapiens, A-375; A375 (melanoma) cells, exposed for 96 hours; read-out: IC50, 50% inhibition of cell proliferation
Experimental: as §1

HL60 (leukemia) = assay: MTT in vitro cytotoxic activity assay, HL60; type: cell-based; conditions: Homo sapiens, HL-60; HL60 (leukemia) cells, exposed for 96 hours; read-out: IC50, 50% inhibition of cell proliferation
Experimental: as §1

PC3 (prostate) = assay: MTT in vitro cytotoxic activity assay, PC3; type: cell-based; conditions: Homo sapiens, Prostate cell; PC3 (prostate) cells, exposed for 96 hours; read-out: IC50, 50% inhibition of cell proliferation
Experimental: as §1

H1299 (lung) = assay: MTT in vitro cytotoxic activity assay, H1299; type: cell-based; conditions: Homo sapiens, NCI-H1299; H1299 (lung) cells, exposed for 96 hours; read-out: IC50, 50% inhibition of cell proliferation
Experimental: as §1

MCF7 (breast) = assay: MTT in vitro cytotoxic activity assay, MCF7; type: cell-based; conditions: Homo sapiens; MCF7 (breast) cells, exposed for 96 hours; read-out: IC50, 50% inhibition of cell proliferation
Experimental: as §1

recombinant human CK2 = biological target: T1, recombinant human CK2 (Homo sapiens, UniProt P68400); assay: CK2 kinase assay (33P-ATP, substrate peptide RRRDDDSDDD); type: biochemical; conditions: final ATP concentration 15 μM, 10 min at 30° C; read-out: IC50, protein kinase CK2 activity
T1 construct: purchased Millipore
Experimental: CK2 Kinase Assay was conducted using the protocol as described in Pierre F. et al; J. Med. Chem. 2011, 54, 635-654. The tested compounds in aqueous solution were added at a volume of 10 μL to a reaction mixture comprising 10 μL of assay dilution buffer (ADB; 20 mM MOPS, pH 7.2, 25 mM (β-glycerol phosphate, 5 mM EGTA, 1 mM sodium orthovanadate, and 1 mM dithiothreitol), 10 μL of substrate peptide (RRRDDDSDDD, dissolved in ADB at a concentration of 1 mM), 10 μL of recombinant human CK2 (RRfββ-holoenzyme, 25 ng dissolved in ADB; Millipore). Reactions were initiated by the addition of 10 μL of ATP solution (90% 75 mMMgCl2, 75 μM ATP (final ATP concentration: 15 μM) dissolved in ADB; 10% [γ-33P] ATP (stock 1 mCi/100 μL; 3000 Ci/mmol (Perkin-Elmer) and maintained for 10 min at 30° C. The reactions were quenched with 100 μL of 0.75% phosphoric acid and then transferred to and filtered through a phosphor cellulose filter plate (Millipore). After washing each well five times with 0.75% phosphoric acid, the plate was dried under vacuum for 5 min and, following the addition of 15 μL of scintillation fluid to each well, the residual radioactivity was measured using a Wallac luminescence counter. The IC50 values were derived from eight concentrations of test inhibitors.

MIAPaCa-2 (pancreas) = assay: MTT in vitro cytotoxic activity assay, MIAPaCa-2; type: cell-based; conditions: Homo sapiens, MIA PaCa-2; MIAPaCa-2 (pancreas) cells, exposed for 96 hours; read-out: IC50, 50% inhibition of cell proliferation
Experimental: as §1

T1 sequence (P68400 whole entry): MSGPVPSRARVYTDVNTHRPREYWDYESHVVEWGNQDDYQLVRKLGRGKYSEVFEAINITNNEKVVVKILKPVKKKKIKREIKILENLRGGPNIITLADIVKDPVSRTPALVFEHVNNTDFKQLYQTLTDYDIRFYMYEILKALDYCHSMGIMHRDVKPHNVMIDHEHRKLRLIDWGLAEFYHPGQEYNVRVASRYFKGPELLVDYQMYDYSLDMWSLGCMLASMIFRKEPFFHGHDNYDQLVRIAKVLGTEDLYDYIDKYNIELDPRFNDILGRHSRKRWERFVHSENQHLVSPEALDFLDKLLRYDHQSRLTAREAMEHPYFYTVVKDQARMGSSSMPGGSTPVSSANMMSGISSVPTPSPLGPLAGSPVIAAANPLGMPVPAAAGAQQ
T1 sequence (P67870 whole entry partner): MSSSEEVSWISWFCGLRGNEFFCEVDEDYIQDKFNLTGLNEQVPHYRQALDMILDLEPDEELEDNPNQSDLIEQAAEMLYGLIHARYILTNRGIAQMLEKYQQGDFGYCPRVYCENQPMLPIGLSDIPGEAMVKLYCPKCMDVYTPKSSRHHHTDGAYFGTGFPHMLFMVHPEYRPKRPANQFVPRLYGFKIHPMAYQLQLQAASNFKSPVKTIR

Structure (SMILES): O=C(O)c1ccc2c(c1)cc1nc(Nc3cccc(Cl)c3)c3ccncc3n12 [Compound 1, 5-((3-chlorophenyl)amino)pyrido[4′,3′:5,6]pyrimido[1,2-a]indole-9-carboxylic acid]
- IC50 (MDA-MB-231 (breast)): 5500 nM
- IC50 (HCT116 (colon)): 1800 nM
- IC50 (A375 (melanoma)): 3500 nM
- IC50 (HL60 (leukemia)): 3300 nM
- IC50 (PC3 (prostate)): 2200 nM
- IC50 (H1299 (lung)): 1900 nM
- IC50 (MCF7 (breast)): 6900 nM
- IC50 (recombinant human CK2): 15 nM
- IC50 (MIAPaCa-2 (pancreas)): 1400 nM

From US11858934B1, “Substituted pyrido[4′,3′:5,6]pyrimido[1,2-a]indoles as CK2 inhibitors” (KING FAISAL UNIVERSITY, priority 2023, dated 2024)
